Laboratory results: ChEMBL document CHEMBL4622960, “Design, synthesis and biological activity of novel substituted 3-benzoic acid derivatives as MtDHFR inhibitors” (Bioorg Med Chem, 2020)
Active and inactive are the calls of the source. No cut-off for these calls is given here.

Legend:
[1] = biological target: T1, Dihydrofolate reductase (Mycobacterium tuberculosis, UniProt P9WNX1); test: Inhibition of recombinant Mycobacterium tuberculosis DHFR expressed in Escherichia coli BL21(DE3) cells using DHF as substrate and NADPH as cofactor by fluorimetric analysis
T1 sequence (P9WNX1 whole entry): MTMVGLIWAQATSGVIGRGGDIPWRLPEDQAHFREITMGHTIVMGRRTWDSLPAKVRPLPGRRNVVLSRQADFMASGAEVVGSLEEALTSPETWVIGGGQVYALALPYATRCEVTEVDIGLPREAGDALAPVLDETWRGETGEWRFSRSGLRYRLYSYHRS

[2] = biological target: T2, Dihydrofolate reductase (Mycobacterium tuberculosis) (UniProt P9WNX1); test: Potency index, ratio of trimethoprim IC50 to test compound IC50 for recombinant Mycobacterium tuberculosis DHFR expressed in Escherichia coli BL21(DE3) cells using DHF as substrate and NADPH as cofactor by fluorimetric analysis
T2 sequence (whole entry): T1 sequence (P9WNX1 whole entry)

[3] = biological target: T2, Dihydrofolate reductase (Mycobacterium tuberculosis); test: Uncompetitive inhibition of Mycobacterium tuberculosis DHFR assessed as constant Km using DHF as substrate and NADPH as cofactor by Michaelis-Menten analysis
[4] = biological target: T2, Dihydrofolate reductase (Mycobacterium tuberculosis); test: Potency index, ratio of MB872 IC50 to test compound IC50 for recombinant Mycobacterium tuberculosis DHFR expressed in Escherichia coli BL21(DE3) cells using DHF as substrate and NADPH as cofactor by fluorimetric analysis
[5] = biological target: T2, Dihydrofolate reductase (Mycobacterium tuberculosis); test: Uncompetitive inhibition of Mycobacterium tuberculosis DHFR assessed as varying Vmax using DHF as substrate and NADPH as cofactor by Michaelis-Menten analysis

**Q.** With COc1ccc(OCc2cccc(C(=O)O)c2)cc1 as the molecule, how does the IC50 [1] read?
**A.** 119 µM

**Q.** Which Ratio IC50 [2] does the source give for O=C(O)c1cccc(CNc2ccccc2)c1 here?
**A.** 13

**Q.** And the IC50 [1]?
**A.** 7 µM

**Q.** And the inhibition [3]?
**A.** Active

**Q.** What about the Ratio IC50 [4] of the same molecule?
**A.** 71

**Q.** And the inhibition [5]?
**A.** Active

**Q.** With COC(=O)c1ccc(COc2ccccc2)cc1 as the molecule, how does the IC50 [1] read?
**A.** 152 µM

**Q.** With COc1ccc(OCc2ccc(C(=O)O)cc2)cc1 as the molecule, how does the IC50 [1] read?
**A.** 31 µM

**Q.** What about the Ratio IC50 [4] of the same molecule?
**A.** 19

**Q.** For O=C(O)c1cccc(OCc2ccccc2)c1, which IC50 [1] is on record?
**A.** 230 µM

**Q.** For O=C(O)c1cccc(COc2ccccc2)c1, which IC50 [1] is on record?
**A.** ≥ 500 µM

**Q.** Which IC50 [1] does the source give for COC(=O)c1cccc(OCc2ccccc2)c1 here?
**A.** > 500 µM

**Q.** What does the source list for O=C(O)c1cccc(COc2ccc(O)cc2)c1?
**A.** IC50 [1]: 36 µM; Ratio IC50 [4]: 13 to 21

**Q.** How did the IC50 [1] turn out when O=C(O)c1cccc(-n2cc(COc3ccccc3)nn2)c1 was run?
**A.** > 500 µM

**Q.** With COC(=O)c1cccc(CSc2ccccc2)c1 as the molecule, how does the IC50 [1] read?
**A.** 76 µM

**Q.** How did the IC50 [1] turn out when O=C(O)c1ccc(COc2ccccc2)cc1 was run?
**A.** 442 µM

**Q.** COC(=O)c1cccc(-n2cc(COc3ccccc3)nn2)c1 was tested. Which IC50 [1] did it give?
**A.** 81 µM

**Q.** What does the source list for COC(=O)c1ccc(COc2ccc(OC)cc2)cc1?
**A.** IC50 [1]: 26 µM; Ratio IC50 [4]: 16

**Q.** How did the IC50 [1] turn out when COC(=O)c1cccc(COc2ccc(OC)cc2)c1 was run?
**A.** 242 µM

**Q.** For COC(=O)c1cccc(COc2ccccc2)c1, which IC50 [1] is on record?
**A.** > 500 µM

**Q.** For c1ccc(OCc2cccc(-c3nnn[nH]3)c2)cc1, which IC50 [1] is on record?
**A.** 454 µM

**Q.** With O=C(O)c1cccc(COc2ccc([N+](=O)[O-])cc2)c1 as the molecule, how does the IC50 [1] read?
**A.** 23 µM

**Q.** What about the Ratio IC50 [4] of the same molecule?
**A.** 13 to 21

**Q.** How did the IC50 [1] turn out when COC(=O)c1cccc(COc2ccc([N+](=O)[O-])cc2)c1 was run?
**A.** 35 µM

**Q.** What about the Ratio IC50 [4] of the same molecule?
**A.** 13 to 21

**Q.** With O=C(O)c1cccc(CSc2ccccc2)c1 as the molecule, how does the IC50 [1] read?
**A.** 128 µM
